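Interpolation was linear, between the two tested concentrations surrounding the appropriate level; five concentrations were tested over 48 hours in 96-well plates. GI50 = concentration required for 50% inhibition of growth.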 Calls of active or inactive are those of the source. Rule as the data show it: active = GI50 up to about 1.1 µM and inactive = higher.
Columns and labels:
Test in all cases: NCI anticancer screen, dose series, 48 h
CCRF-CEM = tested on: CCRF-CEM
HCC 2998 = tested on: HCC 2998
HCT-15 = tested on: HCT-15
HL-60 = tested on: HL-60
HOP-62 = tested on: HOP-62
HT-29 = tested on: HT-29
KM-20L2 = tested on: KM-20L2
LXFL 529 = tested on: LXFL 529
NCI-H23 = tested on: NCI-H23
OVCAR-4 = tested on: OVCAR-4
OVCAR-5 = tested on: OVCAR-5
OVCAR-8 = tested on: OVCAR-8
SF-539 = tested on: SF-539
SN12C = tested on: SN12C
SW-620 = tested on: SW-620
UACC-62 = tested on: UACC-62
CAKI-1 = tested on: CAKI-1
Malme-3M = tested on: Malme-3M
SR = tested on: SR

SMILES: COc1cc(C(N)=O)c(OC)c(OC)c1OC
- GI50 (CCRF-CEM): > 100 µM (inactive)
- GI50 (HCC 2998): > 100 µM (inactive)
- GI50 (HCT-15): > 100 µM
- GI50 (HL-60): > 100 µM (inactive)
- GI50 (HOP-62): > 100 µM (inactive)
- GI50 (HT-29): > 100 µM (inactive)
- GI50 (KM-20L2): > 100 µM (inactive)
- GI50 (LXFL 529): > 100 µM (inactive)
- GI50 (NCI-H23): > 100 µM (inactive)
- GI50 (OVCAR-4): > 100 µM (inactive)
- GI50 (OVCAR-5): > 100 µM (inactive)
- GI50 (OVCAR-8): > 100 µM (inactive)
- GI50 (SF-539): > 100 µM (inactive)
- GI50 (SN12C): > 100 µM (inactive)
- GI50 (SW-620): > 100 µM (inactive)
- GI50 (UACC-62): > 100 µM (inactive)

SMILES: CN(C)CC1CCCC/C1=N/O (centres undefined)
- GI50 (CAKI-1): > 100 µM (inactive)
- GI50 (CCRF-CEM): > 100 µM (inactive)
- GI50 (HCC 2998): > 100 µM (inactive)
- GI50 (HCT-15): > 100 µM
- GI50 (HL-60): > 100 µM (inactive)
- GI50 (HOP-62): > 100 µM (inactive)
- GI50 (HT-29): > 100 µM (inactive)
- GI50 (KM-20L2): > 100 µM (inactive)
- GI50 (LXFL 529): > 100 µM (inactive)
- GI50 (Malme-3M): > 100 µM (inactive)
- GI50 (NCI-H23): > 100 µM (inactive)
- GI50 (OVCAR-4): > 100 µM (inactive)
- GI50 (OVCAR-5): > 100 µM (inactive)
- GI50 (OVCAR-8): > 100 µM (inactive)
- GI50 (SF-539): > 100 µM (inactive)
- GI50 (SN12C): > 100 µM (inactive)
- GI50 (SW-620): > 100 µM (inactive)
- GI50 (UACC-62): > 100 µM (inactive)

SMILES: O=[N+]([O-])c1ccc(NSc2ccccc2)cc1
- GI50 (CCRF-CEM): 3.03 µM (inactive)
- GI50 (HCC 2998): 50.6 µM (inactive)
- GI50 (HCT-15): 19.8 µM
- GI50 (HL-60): 15 µM (inactive)
- GI50 (HOP-62): 33.3 µM (inactive)
- GI50 (KM-20L2): 31.8 µM (inactive)
- GI50 (LXFL 529): 14.3 µM (inactive)
- GI50 (Malme-3M): > 100 µM (inactive)
- GI50 (NCI-H23): 45.6 µM (inactive)
- GI50 (OVCAR-5): 89.7 µM (inactive)
- GI50 (OVCAR-8): 19.8 µM (inactive)
- GI50 (SF-539): 18.7 µM (inactive)
- GI50 (SN12C): 17.2 µM (inactive)
- GI50 (SR): 10.7 µM (inactive)
- GI50 (SW-620): 24.2 µM (inactive)
- GI50 (UACC-62): 20.1 µM (inactive)

SMILES: O=C(O)c1c[nH]c2c(ccc3ncccc32)c1=O
- GI50 (CCRF-CEM): > 100 µM (inactive)
- GI50 (HCC 2998): > 100 µM (inactive)
- GI50 (HCT-15): > 100 µM
- GI50 (HL-60): > 100 µM (inactive)
- GI50 (HOP-62): > 100 µM (inactive)
- GI50 (HT-29): > 100 µM (inactive)
- GI50 (KM-20L2): > 100 µM (inactive)
- GI50 (LXFL 529): > 100 µM (inactive)
- GI50 (Malme-3M): > 100 µM (inactive)
- GI50 (NCI-H23): > 100 µM (inactive)
- GI50 (OVCAR-4): > 100 µM (inactive)
- GI50 (OVCAR-5): > 100 µM (inactive)
- GI50 (OVCAR-8): > 100 µM (inactive)
- GI50 (SF-539): > 100 µM (inactive)
- GI50 (SN12C): > 100 µM (inactive)
- GI50 (SR): > 100 µM (inactive)
- GI50 (SW-620): > 100 µM (inactive)
- GI50 (UACC-62): > 100 µM (inactive)

SMILES: CC(=O)OCC1OC(OC2C(CSC3OC(COC(C)=O)C(OC(C)=O)C(OC(C)=O)C3OC(C)=O)OC(OC(C)=O)C(OC(C)=O)C2OC(C)=O)C(OC(C)=O)C(OC(C)=O)C1OC(C)=O (centres undefined)
- GI50 (CAKI-1): > 100 µM (inactive)
- GI50 (CCRF-CEM): > 100 µM (inactive)
- GI50 (HCC 2998): > 100 µM (inactive)
- GI50 (HCT-15): > 100 µM
- GI50 (HOP-62): > 100 µM (inactive)
- GI50 (HT-29): > 100 µM (inactive)
- GI50 (KM-20L2): > 100 µM (inactive)
- GI50 (LXFL 529): > 100 µM (inactive)
- GI50 (Malme-3M): > 100 µM (inactive)
- GI50 (NCI-H23): > 100 µM (inactive)
- GI50 (OVCAR-4): > 100 µM (inactive)
- GI50 (OVCAR-5): 23.7 µM (inactive)
- GI50 (OVCAR-8): > 100 µM (inactive)
- GI50 (SF-539): > 100 µM (inactive)
- GI50 (SN12C): > 100 µM (inactive)
- GI50 (SR): > 100 µM (inactive)
- GI50 (SW-620): > 100 µM (inactive)
- GI50 (UACC-62): > 100 µM (inactive)

SMILES: NC(=S)N/N=C1\C(=O)N(c2cccc([N+](=O)[O-])c2)C(=O)C1C(=O)Nc1cccc([N+](=O)[O-])c1 (centres undefined)
- GI50 (CAKI-1): > 100 µM (inactive)
- GI50 (CCRF-CEM): > 100 µM (inactive)
- GI50 (HCC 2998): > 100 µM (inactive)
- GI50 (HCT-15): > 100 µM
- GI50 (HL-60): 38.4 µM (inactive)
- GI50 (HOP-62): > 100 µM (inactive)
- GI50 (HT-29): > 100 µM (inactive)
- GI50 (KM-20L2): > 100 µM (inactive)
- GI50 (LXFL 529): > 100 µM (inactive)
- GI50 (Malme-3M): > 100 µM (inactive)
- GI50 (NCI-H23): > 100 µM (inactive)
- GI50 (OVCAR-4): > 100 µM (inactive)
- GI50 (OVCAR-5): > 100 µM (inactive)
- GI50 (OVCAR-8): > 100 µM (inactive)
- GI50 (SF-539): > 100 µM (inactive)
- GI50 (SN12C): > 100 µM (inactive)
- GI50 (SW-620): > 100 µM (inactive)
- GI50 (UACC-62): > 100 µM (inactive)

SMILES: COC(=O)C(CC(=O)Nc1ccc(C)cc1)C(=O)C(=O)Nc1c(C(C)C)cccc1C(C)C (centres undefined)
- GI50 (CAKI-1): > 100 µM (inactive)
- GI50 (CCRF-CEM): > 100 µM (inactive)
- GI50 (HCC 2998): > 100 µM (inactive)
- GI50 (HCT-15): 48.6 µM
- GI50 (HL-60): > 100 µM (inactive)
- GI50 (HOP-62): > 100 µM (inactive)
- GI50 (KM-20L2): > 100 µM (inactive)
- GI50 (LXFL 529): 99.1 µM (inactive)
- GI50 (Malme-3M): > 100 µM (inactive)
- GI50 (NCI-H23): > 100 µM (inactive)
- GI50 (OVCAR-4): > 100 µM (inactive)
- GI50 (OVCAR-5): > 100 µM (inactive)
- GI50 (OVCAR-8): > 100 µM (inactive)
- GI50 (SF-539): > 100 µM (inactive)
- GI50 (SN12C): > 100 µM (inactive)
- GI50 (SW-620): > 100 µM (inactive)
- GI50 (UACC-62): 55.2 µM (inactive)

SMILES: O=C(Cc1nc2ccccc2c(=O)n1-c1ccccc1Cl)c1ccncc1
- GI50 (CAKI-1): > 100 µM (inactive)
- GI50 (CCRF-CEM): > 100 µM (inactive)
- GI50 (HCC 2998): > 100 µM (inactive)
- GI50 (HCT-15): > 100 µM
- GI50 (HL-60): 37.6 µM (inactive)
- GI50 (HOP-62): > 100 µM (inactive)
- GI50 (HT-29): > 100 µM (inactive)
- GI50 (KM-20L2): > 100 µM (inactive)
- GI50 (LXFL 529): > 100 µM (inactive)
- GI50 (Malme-3M): > 100 µM (inactive)
- GI50 (NCI-H23): > 100 µM (inactive)
- GI50 (OVCAR-4): 68.2 µM (inactive)
- GI50 (OVCAR-5): > 100 µM (inactive)
- GI50 (OVCAR-8): > 100 µM (inactive)
- GI50 (SF-539): > 100 µM (inactive)
- GI50 (SN12C): > 100 µM (inactive)
- GI50 (SW-620): > 100 µM (inactive)
- GI50 (UACC-62): > 100 µM (inactive)

Source: ChEMBL document CHEMBL1201862, “PubChem BioAssay data set” (2004)
